Results from US12150750B2, “D-glucose and its analogs as tracers to assess the glucose transporter function on blood-cerebrospinal fluid barrier and the functioning of the brain lymphatic system” (The Johns Hopkins University, priority 2020, dated 2024).

Legend:
[1] = Dynamic glucose enhanced (DGE) onVDMP MRI at 11.7 T of glucose uptake in brain parenchyma and CSF of WT and Tau mice; type: in vivo, mouse; details: for fitted ADGE (amplitude of glucose uptake at equilibrium) of parenchyma: i.v. bolus 0.15 mL 50% glucose, n=4; for half-life: female, mouse, 0.15 mL of 50% w/w glucose (0.5 g/mL)
Procedure: (§1) The study was carried out under the approval of Johns Hopkins University animal care and use. Four female Tau4RΔK (Tau) mice (49) with an age of 7-8 months and four female age-matched C57BL/6J mice were used for the AD study. Two age-matched BALB/c mice were used for the validation of glucose uptake using an MRS method. The Tau mice were bred at Johns Hopkins University and the onset of tau tangles starts at the age of six months (49). A catheter was placed in the tail vein for glucose administration before placing the animal in the scanner.
All MRI experiments were performed on a horizontal bore 11.7 T Bruker Biospec system (Bruker, Ettlingen, Germany) equipped with actively shielded gradients, with a maximum strength of 74 Gauss/cm. A 72 mm quadrature volume resonator was used as a transmitter and a 2×2 mouse phased array coil for acquisition. All animals were anesthetized using 2% isoflurane in medical air, followed by 1% to 1.5% isoflurane for maintenance during the MRI scan. The mouse head was positioned using a bite bar and two ear pins. During the MRI scan, mice were placed on a water-heated animal bed. Respiratory rate was monitored via a pressure sensor (SAII, Stony Brook, NY, USA) and maintained at 40-60 breaths per minute. The B0 field over the mouse brain was adjusted using field-mapping and second-order shimming.
The MRI sequence used for monitoring the glucose uptake in brain and CSF was onVDMP, illustrated in (a) of FIG. 3. The duration of each binomial pulse pair was 3 ms, and the length of a saturation module was proportional to the total number of binomial pulse pairs. Two independent onVDMP sequences with different saturation-module lengths (i.e. 36 ms and 300 ms) were repeated in an interleaved fashion to detect the glucose uptake in brain parenchyma and CSF, respectively. Other imaging parameters were: TR/TE=2.5 s/5 ms, RARE factor=23, slice thickness=1 mm, a matrix size of 196×128 within a FOV of 20×10 mm^2. The scan time for each onVDMP experiment was fixed to 7.5 s and the dynamic glucose enhanced (DGE) images were acquired continuously for 27.5 min. A bolus of 0.15 mL 50% w/w glucose (0.5 g/mL, clinical-grade dextrose, Hospira, Lake Forest, IL) was given at 10th min of the dynamic experiment through the tail vein using a syringe pump (Harvard Apparatus Holliston, MA, USA). The first five minutes of dynamic scan were used as dummy scans to make sure system reached steady-state.
According to R1ρ theory (50-52), the water signal intensity (S) after applying an onVDMP sequence is expressed in some embodiments as: S=S0e^−T^onvDMP^R^1ρ (1)
where S0 is the water signal intensity without saturation. Because ΔR1ρ induced by glucose infusion is relatively small (41-43,53,54), the normalized change of water signal intensity ΔZ is approximated in some embodiments as: ΔZ=(Sbase−S)/Sbase=1−e^−T^onvDMP^ΔR^1ρ≈TonVDMPΔR1ρ (2)
where Sbase is the referenced water signal intensity. In this study, the average of water signal intensity before glucose infusion was used as Sbase. The dynamic images are calculated in some embodiments by averaging N images within a certain time period (55): Save=Σn=1^NΔZ(n)/N (3)
To correct for motion between DGE images, image registration was applied using Medical Imaging Registration Toolbox (MIRT) (56). The regions of interest (ROIs) were selected by hand with the reference to mouse brain atlas (https://mouse.brain-map.org).
The glucose uptake curves measured by DGE MRI are fitted using exponential functions in some embodiments to allow quantitative comparison: ΔDGE(t)=ADGE(1−e^−t/T^u,DGE) (4)
where ΔDGE(t) is the DGE signal difference determined by onVDMP MRI. Tu,DGE is the glucose uptake lifetime. The half-life time of glucose uptake was calculated by the equation: Thalf=Tu*0.6931. ADGE represents the amplitudes of glucose uptake at equilibrium measured by onVDMP. […]

[2] = literature reference 28; cited from earlier work
[3] = Validation of glucose uptake in brain using an MRS method; type: in vivo; details: mouse, intravenous, BALB/c mice, read-out: half-life time of glucose uptake measured by MRS
Procedure: as §1

[4] = DGE onVDMP MRI at 3 T of D-glucose uptake and clearance in CSF of WT and APP/PS1 mice; type: in vivo, mouse; details: for ΔS at 2 min (CSF DGE signal difference) / ΔS at 30 min (CSF DGE signal difference): n=5
Text: All animal experiments were approved by the Animal Ethics Committee and followed the institutional guidelines of Institutional Laboratory Animal Research Unit of City University of Hong Kong. […] APP/PS1 mice are double transgenic mice expressing a chimeric mouse/human amyloid precursor protein (Mo/HuAPP695swe) and a mutant human presenilin 1 (PS1-dE9), both directed to CNS neurons. Both mutations are associated with early-onset AD. Another six 6M WT mice were used for the control experiments.
The onVDMP sequence diagram is shown in (a) of FIG. 3. By setting a different binomial pulse number N, the saturation length is adjusted to image the parenchyma and CSF, respectively. In this study, the saturation length was set to 60 ms for imaging parenchyma and 900 ms for imaging CSF. DGE experiments on both parenchyma and CSF images are acquired in an alternate way in some embodiments during one acquisition, similar to the experiments in example 1.
When carrying out the MRI experiments on mice, anesthesia was induced and maintained using isoflurane at 2% and 1.5%, respectively. The isoflurane was mixed with 90% oxygen generated by an oxygen concentrator. The flow rate of oxygen generator was set to 2 liter per minute (LPM) and kept unchanged during the whole experiment. Mice were placed in a horizontal bore 3 T Bruker BioSpec animal scanner (Bruker, Germany). A 82-mm-diameter quadrature coil and a 23-mm-diameter mouse brain surface coil were used for transmitting and receiving signal, respectively. A catheter was placed in the tail vein for glucose administration before placing the animal in the scanner. A bolus of 0.15 mL filtered 50% D-glucose was injected into the mouse body through the tail vein over one minute (speed: 0.15 ml/min) using a MRI-compatible syringe pump (Harvard Apparatus). Mouse body temperature was maintained at 37° C. using a warming pad. Respiration and body temperature were continuously monitored using an MRI-compatible monitor system (SA Instruments, Inc). Before DGE acquisition, the B0 field over the mouse brain was shimmed using field-mapping and second-order shimming. The read-out module was rapid acquisition with refocused echoes (RARE) with TR/TE=2.5 s/4.7 ms, RARE factor=32, centric encoding, slice thickness=2 mm, a matrix size of 96×96 within a field of view (FOV) of 20×20 mm^2, resulting in a time resolution of 15 s for each pair of images (7.5 s for parenchyma and 7.5 s for CSF). A total number of 550 images were acquire for each DGE module, thus leading to a total scanning time of 1 h8 min 45 s. The glucose injection was started at 8 min 45 s and lasted for 1 min. […] The image slice was positioned based on a collected sagittal image of the mouse brain with the position of the coronal image slice set to −1.4 mm with respect to the anterior commissure (AC).
All image processing and data analyses were performed using custom written code in MATLAB (R2018b, MathWorks, USA). When calculating DGE kinetic curves, baseline signal Sbase was generated by averaging the 30 baseline images. Since the total number of DGE images was large ([…] for each mouse), every set of 15 images were averaged to visualize the dynamic process of glucose changes. Then Eq. 5 was used for each time point to construct the DGE kinetic curves after glucose administration.
The DGE data of CSF were fitted by a simple gamma variate model(66,67) for only the first 20 mins after glucose injection, giving an uptake rate and an estimate of the initial rate of clearance:
where A is an amplitude modulation parameter, μin represents the glucose uptake rate, μout represents the initial rate of clearance. […] The maximum signal that CSF DGE reached is directly extracted in some embodiments after fitting as Smax=max(ΔS′CSF(t)). For both parenchymal and CSF DGE curves, fitting was achieved using the built-in nonlinear least-squares curve fitting function in MATLAB. […]

fitted ADGE (amplitude of glucose uptake at equilibrium) of parenchyma ([1]; Tau4RΔK mice, cortex): 1.70±1.33%
CSF ADGE ([1]; Tau mice, CSF): 6.72±2.22%
time at which DGE signal reached a plateau ([1]; Tau mice, CSF): around 25 min
glucose uptake in the cortex (DGE signal intensity) ([1]; Tau mice, cortex): 1.6±1.3%
fitted ADGE (amplitude of glucose uptake at equilibrium) of parenchyma ([1]; WT mice (C57BL/6J), cortex): 5.42±0.70%
CSF ADGE ([1]; WT mice, CSF): 7.03±2.12%
drop of DGE signal from the peak value at 27.5 minutes ([1]; WT mice, CSF): about 1.5±0.5%
peak value of DGE signal ([1]; WT mice, CSF): 6±0.3%
time at which DGE signal plateaued ([1]; WT mice, CSF): around 10 min
time at which DGE signal reaches a maximum before decay ([1]; WT mice, CSF): around 15 minutes
glucose uptake in the cortex (DGE signal intensity) ([1]; WT mice, cortex): 4.3±1.3%
half-life ([1]; C57BL/6J, brain parenchyma (cortex), iv, WT mice, cortex, read-out: uptake half-life time of parenchyma): 4.71 ± 1.03 min
half-life ([1]; C57BL/6J, intravenous, brain tissue of WT mice, as restated in discussion, read-out: half-life time of glucose uptake obtained by the onVDMP method): 4.71 ± 1.18 min
half-life ([1]; C57BL/6J, iv, WT mice, CSF, read-out: uptake half-life time of CSF): 1.24 ± 0.24 min
half-life ([1]; Tau4RΔK, brain parenchyma (cortex), iv, Tau mice, cortex, read-out: uptake half-life time of parenchyma): 5.14 ± 0.3 min
half-life ([1]; Tau4RΔK, iv, Tau mice, CSF, read-out: uptake half-life time of CSF): 7.8 ± 1.14 min
time at which glucose uptake reaches a plateau ([1]; parenchymal ROI (cortex), both WT and Tau mice): about 20 min
half-life [3]: 4.16 ± 0.69 min
ΔS at 2 min (CSF DGE signal difference) ([4]; APP/PS1 mice 6M): 12.70±2.30%
ΔS at 30 min (CSF DGE signal difference) ([4]; APP/PS1 mice 6M): 11.84±4.13%
ΔS at 2 min (CSF DGE signal difference) ([4]; WT mice 6M, i.v. bolus 0.15 mL 50% D-glucose): 14.56±2.86%
ΔS at 30 min (CSF DGE signal difference) ([4]; WT mice 6M): 3.18±2.95%
D-glucose uptake rate μin, WT versus APP/PS1 ([4]; mouse, in vivo): no significant difference
Smax (maximum CSF DGE signal), APP/PS1 versus WT ([4]; mouse, in vivo): significantly lower
washout initial rate μout of D-glucose in CSF, APP/PS1 compared to WT ([4]; mouse, in vivo): significantly slower
SMILES: O=C[C@H](O)[C@@H](O)[C@H](O)[C@H](O)CO [D-glucose]
half-life time of glucose uptake, previous 13C MRS measurements [2]: 5.10 ± 0.11 min
